This data set in a line: End-to-end contact formation (no covalent bond): MR121 oxazine dye fluorescence quenched by C-terminal Trp through van der Waals contact/stacking; ns-resolved FCS; single-exponential fit over 6-300 ns with two-state model. Conditions: the molecule shown is the open-chain precursor; water (aqueous solution); 20.0 °C.
The compound `CCN1CCCc2cc3c(cc21)Oc1cc2c(cc1=N3)CCC[N+]=2CCCC(=O)NCC(=O)N[C@@H](CO)C(=O)NCC(=O)N[C@@H](CO)C(=O)N[C@@H](Cc1c[nH]c2ccccc12)C(=O)[O-]` [MR121-Gly-Ser-Gly-Ser-Trp-O-] registered an end-to-end contact formation time constant (ns (closing time constant tau+ = 1/k+)) of 14.6.
`CCN1CCCc2cc3c(cc21)Oc1cc2c(cc1=N3)CCC[N+]=2CCCC(=O)NCC(=O)N[C@@H](CO)C(=O)NCC(=O)N[C@@H](CO)C(=O)NCC(=O)N[C@@H](CO)C(=O)NCC(=O)N[C@@H](CO)C(=O)NCC(=O)N[C@@H](CO)C(=O)N[C@@H](Cc1c[nH]c2ccccc12)C(=O)[O-]` [MR121-Gly-Ser-Gly-Ser-Gly-Ser-Gly-Ser-Gly-Ser-Trp-O-]: the end-to-end contact formation time constant (ns (closing time constant tau+ = 1/k+)) was found to be 20.5.
`CCN1CCCc2cc3c(cc21)Oc1cc2c(cc1=N3)CCC[N+]=2CCCC(=O)NCC(=O)N[C@@H](CO)C(=O)NCC(=O)N[C@@H](CO)C(=O)NCC(=O)N[C@@H](CO)C(=O)N[C@@H](Cc1c[nH]c2ccccc12)C(=O)[O-]` [MR121-Gly-Ser-Gly-Ser-Gly-Ser-Trp-O-] had an end-to-end contact formation time constant (ns (closing time constant tau+ = 1/k+)) of 17.6.
The same measure for `CCN1CCCc2cc3c(cc21)Oc1cc2c(cc1=N3)CCC[N+]=2CCCC(=O)NCC(=O)N[C@@H](CO)C(=O)NCC(=O)N[C@@H](CO)C(=O)NCC(=O)N[C@@H](CO)C(=O)NCC(=O)N[C@@H](CO)C(=O)NCC(=O)N[C@@H](CO)C(=O)NCC(=O)N[C@@H](CO)C(=O)NCC(=O)N[C@@H](CO)C(=O)NCC(=O)N[C@@H](CO)C(=O)NCC(=O)N[C@@H](CO)C(=O)N[C@@H](Cc1c[nH]c2ccccc12)C(=O)[O-]`: 48.9.
With `CCN1CCCc2cc3c(cc21)Oc1cc2c(cc1=N3)CCC[N+]=2CCCC(=O)NCC(=O)N[C@@H](CO)C(=O)NCC(=O)N[C@@H](CO)C(=O)NCC(=O)N[C@@H](CO)C(=O)NCC(=O)N[C@@H](CO)C(=O)NCC(=O)N[C@@H](CO)C(=O)NCC(=O)N[C@@H](CO)C(=O)NCC(=O)N[C@@H](CO)C(=O)NCC(=O)N[C@@H](CO)C(=O)NCC(=O)N[C@@H](CO)C(=O)NCC(=O)N[C@@H](CO)C(=O)NCC(=O)N[C@@H](CO)C(=O)NCC(=O)N[C@@H](CO)C(=O)NCC(=O)N[C@@H](CO)C(=O)NCC(=O)N[C@@H](CO)C(=O)NCC(=O)N[C@@H](CO)C(=O)N[C@@H](Cc1c[nH]c2ccccc12)C(=O)[O-]`, the end-to-end contact formation time constant (ns (closing time constant tau+ = 1/k+)) turned out to be 103.
In the case of `CCN1CCCc2cc3c(cc21)Oc1cc2c(cc1=N3)CCC[N+]=2CCCC(=O)NCC(=O)N[C@@H](CO)C(=O)NCC(=O)N[C@@H](CO)C(=O)NCC(=O)N[C@@H](CO)C(=O)NCC(=O)N[C@@H](CO)C(=O)NCC(=O)N[C@@H](CO)C(=O)NCC(=O)N[C@@H](CO)C(=O)NCC(=O)N[C@@H](CO)C(=O)NCC(=O)N[C@@H](CO)C(=O)NCC(=O)N[C@@H](CO)C(=O)NCC(=O)N[C@@H](CO)C(=O)NCC(=O)N[C@@H](CO)C(=O)NCC(=O)N[C@@H](CO)C(=O)N[C@@H](Cc1c[nH]c2ccccc12)C(=O)[O-]` it was 68.4; in that of `CCN1CCCc2cc3c(cc21)Oc1cc2c(cc1=N3)CCC[N+]=2CCCC(=O)NCC(=O)N[C@@H](CO)C(=O)NCC(=O)N[C@@H](CO)C(=O)NCC(=O)N[C@@H](CO)C(=O)NCC(=O)N[C@@H](CO)C(=O)NCC(=O)N[C@@H](CO)C(=O)NCC(=O)N[C@@H](CO)C(=O)NCC(=O)N[C@@H](CO)C(=O)N[C@@H](Cc1c[nH]c2ccccc12)C(=O)[O-]`, 32.7.
